Literature values as cited in patent publication US20110236538A1, “CHITIN DERIVATIVE AND NATURAL SWEETENER CONJUGATE FOR CONTROLLING INGESTED FAT IN HUMANS AND HAVING SWEETENING PROPERTIES” (priority 2008, published 2011).

Settings: successive lines = successive pKa of di- and trivalent acids

## O=C(O)C(Cl)(Cl)Cl [Trichloroacetic]
  pKa (25° C.): 0.70
